Assay results published in patent publication US4568490A, “Aminopropylaminobleomycin derivatives and process for preparation thereof” (Zaidan Hojin Biseibutsu Kagaku Kenkyu Kai, priority 1981, dated 1986).

Key:
ICR strain mice = experiment: Pulmonary toxicity (pulmonary fibrosis) in mice, intraperitoneal injection; format: in vivo; conditions: 5 mg/kg i.p. once a day for 10 days; for Grade of pulmonary fibrosis, % / Incidence of pulmonary fibrosis, % / Incidence: number of mice suffering from pulmonary fibrosis / Grade: total score of pulmonary fibrosis/total number of test animal: autopsy after 5 weeks; for Incidence: number of mice suffering from pulmonary fibrosis: affected/total mice; for Grade: total score of pulmonary fibrosis/total number of test animal: score 0-6 points; for Grade of pulmonary fibrosis, Ratio / Incidence of pulmonary fibrosis, Ratio: reference of the ratio not stated
Method: (3) Pulmonary toxicity (pulmonary fibrosis) in mice.
ICR strain mice (male; 15 weeks old; 9 mice per group) were used. Each mouse was administered with a daily dose of 5 mg/kg of the test sample by intraperitoneal injection, once a day, for 10 consecutive days. After completion of the predetermined administration, the mice were kept for 5 weeks under observation, then slaughtered, and autopsied to examine the incidence and grade of pulmonary fibrosis. The evaluation was made by comparing the number of administered mice suffering from pulmonary fibrosis and the grade of the disease.
In Tables 4A and 4B, the grade was numerically rated as follows:
1 point: Accumulation of exudate in pulmonary alveoli and fibrosis-like change in alveolar septum.
2 points: Fibrosis in several areas.
4 points: Scattered fibrosis.
6 points: Fibrosis in more than two-thirds of the total area.

[1] = tested on: Mycobacterium smegmatis ATCC 607; experiment: Antimicrobial activity, agar plate-cylinder method; format: cell-based; conditions: Cu-free form; bleomycin A2 (Cu-free form) standard assumed 1,000 mcg/mg
Method: (§1) The activity was assayed against the above test microorganisms by the method of agar plate-cylinder, assuming the potency of bleomycin A2 (Cu-free form), used as standard, to be 1,000 mcg/mg.

Hela S3 cells = experiment: Growth inhibitory activity against Hela S3 cells; format: cell-based; conditions: Cu-free form; Hela S3, 3 days incubation with compound
Method: The percentage growth inhibition was calculated using the equation: […] wherein A is the ultimate number of cells on the third day from the addition of a test sample, B is the ultimate number of cells in the control (without the addition of test sample), and C is the number of cells on the day of addition of the test sample.

Bacillus subtilis = experiment: Antimicrobial activity, agar plate-cylinder method; format: cell-based; conditions: Cu-free form; bleomycin A2 (Cu-free form) standard assumed 1,000 mcg/mg
Method: (1) Antimicrobial activity against Mycobacterium smegmatis ATCC 697 and Bacillus subtilis.
as §1

| Structure (SMILES) | Grade of pulmonary fibrosis, % (ICR strain mice) [%] | Incidence of pulmonary fibrosis, % (ICR strain mice) [%] | Incidence: number of mice suffering from pulmonary fibrosis (ICR strain mice) | Grade: total score of pulmonary fibrosis/total number of test animal (ICR strain mice) | Grade of pulmonary fibrosis, Ratio (ICR strain mice) | Incidence of pulmonary fibrosis, Ratio (ICR strain mice) | Antimicrobial potency of Cu--free compound, against Mycobacterium smegmatis ATCC 607 [1] [mcg potency per mg] | 50% growth inhibition concentration (ID50) of Cu--free compound against cultured Hela cell (Hela S3 cells) [µg/mL] | Antimicrobial potency of Cu--free compound, against Bacillus subtilis (Bacillus subtilis) [mcg potency per mg] |
| --- | --- | --- | --- | --- | --- | --- | --- | --- | --- |
| Cc1c(N)nc(C(CC(N)=O)NCC(N)C(N)=O)nc1C(=O)NC(C(=O)NC(C)C(O)C(C)C(=O)NC(C(=O)NCCc1nc(-c2nc(C(=O)NCCCN(C)CCCN(Cc3cc(OCc4ccccc4)c(OCc4ccccc4)c(OCc4ccccc4)c3)Cc3cc(OCc4ccccc4)c(OCc4ccccc4)c(OCc4ccccc4)c3)cs2)cs1)C(C)O)C(OC1OC(CO)C(O)C(O)C1OC1OC(CO)C(O)C(OC(N)=O)C1O)c1cnc[nH]1 (stereo not drawn) [compound 53, 3-{N--Methyl-N--[3'-(bis(3",4",5"-tribenzyloxybenzyl)amino)propyl]amino}propylaminoBLM] | 0 | 0 | 0/9 | 0/27 | 0.00 | 0.00 | 11 | 0.062 | 26 |
| COc1ccc(COc2ccc(CN(CCCN(C)CCCNC(=O)c3csc(-c4csc(CCNC(=O)C(NC(=O)C(C)C(O)C(C)NC(=O)C(NC(=O)c5nc(C(CC(N)=O)NCC(N)C(N)=O)nc(N)c5C)C(OC5OC(CO)C(O)C(O)C5OC5OC(CO)C(O)C(OC(N)=O)C5O)c5cnc[nH]5)C(C)O)n4)n3)Cc3ccc(OCc4ccc(OC)cc4)c(OCc4ccc(OC)cc4)c3)cc2OCc2ccc(OC)cc2)cc1 (stereo not drawn) [compound 50] | 0 | 0 | 0/9 | 0/27 | 0.00 | 0.00 | 145 | 0.70 | 35 |
| Cc1c(N)nc(C(CC(N)=O)NCC(N)C(N)=O)nc1C(=O)NC(C(=O)NC(C)C(O)C(C)C(=O)NC(C(=O)NCCc1nc(-c2nc(C(=O)NCCCN(C)CCCN(Cc3ccc(OCc4ccc(OCc5ccccc5)cc4)cc3)Cc3ccc(OCc4ccc(OCc5ccccc5)cc4)cc3)cs2)cs1)C(C)O)C(OC1OC(CO)C(O)C(O)C1OC1OC(CO)C(O)C(OC(N)=O)C1O)c1cnc[nH]1 (stereo not drawn) [compound 51] | 0 | 0 | 0/9 | 0/27 | 0.00 | 0.00 | 163 | 0.12 | 46 |
| Cc1c(N)nc(C(CC(N)=O)NCC(N)C(N)=O)nc1C(=O)NC(C(=O)NC(C)C(O)C(C)C(=O)NC(C(=O)NCCc1nc(-c2nc(C(=O)NCCCN3CCN(CCCNCc4ccc(Cl)cc4)CC3)cs2)cs1)C(C)O)C(OC1OC(CO)C(O)C(O)C1OC1OC(CO)C(O)C(OC(N)=O)C1O)c1cnc[nH]1 (stereo not drawn) [compound 44, 3-[4-(3-p-Chlorobenzylaminopropyl)piperazin-l-yl]propylaminoBLM] | 0 | 0 | 0/9 | 0/27 | 0.00 | 0.00 | 11350 | 0.31 | 6080 |
| Cc1c(N)nc(C(CC(N)=O)NCC(N)C(N)=O)nc1C(=O)NC(C(=O)NC(C)C(O)C(C)C(=O)NC(C(=O)NCCc1nc(-c2nc(C(=O)NCCCN(C)CCCNCC3CCCCCCCCCCCC3)cs2)cs1)C(C)O)C(OC1OC(CO)C(O)C(O)C1OC1OC(CO)C(O)C(OC(N)=O)C1O)c1cnc[nH]1 (stereo not drawn) [compound 47, 3-{N--Methyl-N--[3'-(cyclotridecanylmethylamino)propyl]amino}propylaminoBLM] | 0 | 0 | 0/9 | 0/27 | 0.00 | 0.00 | 3915 | 0.18 | 1760 |
| Cc1c(N)nc(C(CC(N)=O)NCC(N)C(N)=O)nc1C(=O)NC(C(=O)NC(C)C(O)C(C)C(=O)NC(C(=O)NCCc1nc(-c2nc(C(=O)NCCCN(C)CCCNCc3ccc(C#N)cc3)cs2)cs1)C(C)O)C(OC1OC(CO)C(O)C(O)C1OC1OC(CO)C(O)C(OC(N)=O)C1O)c1cnc[nH]1 (stereo not drawn) [compound 18, 3-{N--Methyl-N--[3'-(p-cyanobenzylamino)propyl]amino}propylaminoBLM] | 0 | 0 | 0/9 | 0/27 | 0.00 | 0.00 | 3163 | 1.10 | 4347 |
| Cc1c(N)nc(C(CC(N)=O)NCC(N)C(N)=O)nc1C(=O)NC(C(=O)NC(C)C(O)C(C)C(=O)NC(C(=O)NCCc1nc(-c2nc(C(=O)NCCCN(C)CCCN(Cc3ccc(OCc4ccc(Cl)cc4)c(OCc4ccc(Cl)cc4)c3)Cc3ccc(OCc4ccc(Cl)cc4)c(OCc4ccc(Cl)cc4)c3)cs2)cs1)C(C)O)C(OC1OC(CO)C(O)C(O)C1OC1OC(CO)C(O)C(OC(N)=O)C1O)c1cnc[nH]1 (stereo not drawn) [compound 48, 3-{N--Methyl-N--[3'-(bis(3",4"di(p-chlorobenzyloxy)benzyl)amino)propyl]amino}propylaminoBLM] | 0 | 0 | 0/9 | 0/27 | 0.00 | 0.00 | 14 | 0.058 | 8 |
| Cc1c(N)nc(C(CC(N)=O)NCC(N)C(N)=O)nc1C(=O)NC(C(=O)NC(C)C(O)C(C)C(=O)NC(C(=O)NCCc1nc(-c2nc(C(=O)NCCCN(C)CCCNCCc3ccc(Cl)cc3)cs2)cs1)C(C)O)C(OC1OC(CO)C(O)C(O)C1OC1OC(CO)C(O)C(OC(N)=O)C1O)c1cnc[nH]1 (stereo not drawn) [compound 1, 3-{N--Methyl-N--[3'-(2"-p-chlorophenylethylamino)propyl]amino}propylaminoBLM] | 11 | 22 | 2/9 | 3/27 | 0.13 | 0.35 | 16800 | 0.54 | 13266 |
| Cc1c(N)nc(C(CC(N)=O)NCC(N)C(N)=O)nc1C(=O)NC(C(=O)NC(C)C(O)C(C)C(=O)NC(C(=O)NCCc1nc(-c2nc(C(=O)NCCCN(C)CCCNCC3CCCCCC3)cs2)cs1)C(C)O)C(OC1OC(CO)C(O)C(O)C1OC1OC(CO)C(O)C(OC(N)=O)C1O)c1cnc[nH]1 (stereo not drawn) [compound 31, 3-{N--Methyl-N--[3'-(cycloheptylmethylamino)propyl]amino}propylaminoBLM] | – | – | – | – | – | – | 25924 | 0.48 | 20143 |
